From US7358249B2, “Heterocyclic compounds having inhibitory activity against HIV integrase” (Shionogi & Co., Ltd., priority 2002, dated 2008)
Values joined by “and” are separate entries in the source; they are usually repeats but may differ in a detail not shown here. Equal entries are not always repeated.

What was measured:
HIV integrase = HIV integrase (Human immunodeficiency virus type 1 group M subtype B, UniProt P04585); test: integrase inhibition assay (microtiter plate, substrate DNA / target DNA); assay type: biochemical; details: integrase 30 pmol, incubated at 30° C. for 1 hour, OD at 405 nm; concentration at percent inhibition 50%; read-out: MIA, IC50 (ug/ml) (converted)
Experimental: The inhibitory activities against integrase of the presnt compounds were determined by the assay described below.
(1) Preparation of DNA Solutions
Substrate DNA and target DNA synthesized by Amersham Pharmacia Biotech, which sequences were indicated below, were dissolved in KTE buffer (composition: 100 mM KCl, 1 mM EDTA, 10 mM Tris-HCl (pH 7.6)) at a concentration of 2 pmol/μl and 5 pmol/μl, respectively. The DNA solutions were heated and then slowly cooled so that they were annealed with each complement.
(Sequence of Substrate DNA)
(2) Calculations of the percent inhibitions (IC50 values of test compounds)
Streptavidin, obtained from Vector Laboratories, was dissolved in 0.1 M carbonate buffer (composition: 90 mM Na2CO3, 10 mM NaHCO3) at a concentration of 40 μg/ml. After coating each well of microtiter plates (obtained from NUNC) with 50 μl of the above solution at 4° C. over night, each well was washed twice with PBS (composition: […], 0.27 mM KCl, 0.43 mM Na2HPO4, 0.14 mM KH2PO4) and blocked with 300 μl of 1% skim milk in PBS for 30 min. Additionally, each well was washed twice with PBS and added with 50 μl of the substrate DNA solution (2 pmol/μl). The microtiter plates were kept at room temperature for 30 min. Then, each well was washed twice with PBS and once with H2O.
Subsequently, to the each well prepared above were added 45 μl of the reaction buffer prepared from 12 μl of the buffer (composition: 150 mM MOPS (pH 7.2), 75 mM MnCl2, 50 mM 2-mercaptoethanol, 25% glycerol, 500 μg/ml bovine serum albumin-fraction V), 1 μl of target DNA (5 pmol/μ), and 32 μl of the distilled water. Additionally, 6 μl of either a test compound in DMSO or DMSO for positive control (PC) was mixed with the above reaction buffer, then 9 μl of an integrase solution (30 pmol) was added thereto and the mixture was mixed well. To the well of negative control (NC) was added 9 μl of the integrase dilution buffer (composition: 20 mM MOPS (pH7.2), 400 mM potassium glutamate, 1 mM EDTA, 0.1% NP-40, 20% glycerol, 1 mM DTT, 4 M urea).
The microtiter plates were incubated at 30° C. for 1 hour. The reaction solution was removed and each well was washed twice with PBS. Subsequently, each well of the microtiter plates was filled with 100 μl of anti-digoxigenin antibody labeled with alkaline phosphatase (Sheep Fab fragment: obtained from Boehringer) and incubated at 30° C. for 1 hour. Then, each well was washed twice with 0.05% Tween20 in PBS and once with PBS. Next, 150 μl of the Alkaline phosphatase reaction buffer (composition: 10 mM p-Nitrophenylphosphate (obtained from Vector Laboratories), 5 mM MgCl2, 100 mM NaCl, 100 mM Tris-HCl (pH 9.5)) was added to each well. The microtiter plates were incubated at 30° C. for 2 hours and the reaction was terminated by the addition of 50 μl of 1 N NaOH solution. The optical density (OD) at 405 nm of each well was measured and the percent inhibition was determined by the following expression. The percent inhibition (%)=100[1−{(C abs.−NC abs.)/(PC abs.−NC abs.)}]
C abs.; the OD of the well of the test compound
NC abs.: the OD of the negative control (NC)
PC abs.: the OD of the positive control (PC)
When the percent inhibition (%) is X % at a concentration of x μg/ml and the percent inhibition (%) is Y % at a concentration of y μg/ml, one of which is more than 50% and the other is less than 50%, IC50 can be determined by the following expression. IC50 (μg/ml)=x−{(X−50)(x−y)/(X−Y)}
Compound No. in the Table 1 is the same as compound No. of the above Examples.

SMILES	IC50 (HIV integrase) [µM]	melting point
COC(=O)c1cc(N)c2cc(Cc3ccc(F)cc3)cnc2c1O [Compound I-8, 5-Amino-3-(4-fluorobenzyl)-8-hydroxyquinoline-7-carboxylic acid methyl ester]	0.398	114 to 115 °C
CCOC(=O)Nc1cc(C(=O)OC)c(O)c2ncc(Cc3ccc(F)cc3)cc12 [Compound I-9, 5-Ethoxycarbonylamino-3-(4-fluorobenzyl)-8-hydroxyquinoline-7-carboxylic acid methyl ester]	0.703	205 to 206 °C
COC(=O)c1cc(NC(C)=O)c2cc(Cc3ccc(F)cc3)cnc2c1O [Compound I-10, 5-Acetylamino-3-(4-fluorobenzyl)-8-hydroxyquinoline-7-carboxylic acid methylester]	1.3	243 to 245 °C
COC(=O)c1cc(NS(C)(=O)=O)c2cc(Cc3ccc(F)cc3)cnc2c1O [Compound I-12, 3-(4-Fluorobenzyl)-8-hydroxy-5-methanesulfonylaminoquinoline-7-carboxylic acid methyl ester]	1.24	189.5 to 190.5 °C
COC(=O)c1cc(NC(C)C)c2cc(Cc3ccc(F)cc3)cnc2c1O [Compound I-14, 3-(4-Fluorobenzyl)-8-hydroxy-5-isopropylaminoquinoline-7-carboxylic acid methylester]	1.19	121 to 122 °C
COC(=O)c1cc(NC2CCCCC2)c2cc(Cc3ccc(F)cc3)cnc2c1O [Compound I-15, 5-Cyclohexylamino-3-(4-fluorobenzyl)-8-hydroxyquinoline-7-carboxylic acid methylester]	1.62	75.5 to 77.5 °C
COC(=O)c1cc(N(C)C)c2cc(Cc3ccc(F)cc3)cnc2c1O [Compound I-16, 5-Dimethylamino-3-(4-fluorobenzyl)-8-hydroxyquinoline-7-carboxylic acid methylester]	0.451	62 to 63 °C
CN=C(Nc1cc(C(=O)OC)c(O)c2ncc(Cc3ccc(F)cc3)cc12)SC [Compound I-19, 5-(2,3-Dimethylisothioureido)-3-(4-fluorobenzyl)-8-hydroxyquinoline-7-carboxylic acid methylester]	1.04	198.5 to 199.5 °C
COC(=O)c1cc(C(=O)N2CCN(C)CC2)c2cc(Cc3ccc(F)cc3)cnc2c1O [Compound I-48, 3-(4-Fluorobenzyl)-8-hydroxy-5-(4-methyl-piperadine-1-carbonyl)quinoline-7-carboxylic acid methyl ester]	0.8	184 to 185 °C
COC(=O)c1cc(C(=O)NCC(=O)N(C)C)c2cc(Cc3ccc(F)cc3)cnc2c1O [Compound I-64, 5-(Dimethylcarbamoylmethylcarbamoyl)-3-(4-fluorobenzyl)-8-hydroxyquinoline-7-carboxylic acid methyl ester]	0.979	198 to 199 °C
COC(=O)c1cc(CO)c2cc(Cc3ccc(F)cc3)cnc2c1O [Compound I-117, 3-(4-Fluorobenzyl)-8-hydroxy-5-hydroxymethylquinoline-7-carboxylic acid methyl ester]	0.208	142 to 143 °C
COC(=O)c1cc(-c2n[nH]c(C)n2)c2cc(Cc3ccc(F)cc3)cnc2c1O [Compound I-134, 3-(4-Fluorobenzyl)-8-hydroxy-5-(5-methyl-1H-[1,2,4]triazole-3-yl)quinoline-7-carboxylic acid methyl ester]	0.357	200 to 202 °C and 195 to 196 °C
COCCC(=O)Nc1cc(C(=O)OC)c(O)c2ncc(Cc3ccc(F)cc3)cc12 [Compound I-182, 3-(4-Fluorobenzyl)-8-hydroxy-5-(3-methoxy-propionylamino)-quinoline-7-carboxylic acid methyl ester]	0.461	190 to 192 °C
COC(=O)c1cc(N2CCOC2=O)c2cc(Cc3ccc(F)cc3)cnc2c1O [Compound I-183, 3-(4-Fluorobenzyl)-8-hydroxy-5-(2-oxo-oxazolidine-3-yl)-quinoline-7-carboxylic acid methyl ester]	0.353	152 to 153 °C
